We go through 1 compound from ChEMBL document CHEMBL1201862, “PubChem BioAssay data set” (2004).

The nature of assay [1]: NIH-3T3 fibroblast cytotoxicity, dose response, cytotoxicity control, cell-based, fluorescence, Alamar Blue, secondary assay (AID 2327).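 Also: NIH-3T3 mouse fibroblasts cultured with fluconazole at 8 µg/mL.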 The class given is functional. On the technique in general: Resazurin is reduced to fluorescent resorufin, in cell work by metabolically active cells.
In assay [2] the target is T1, Sentrin-specific protease 7 (Homo sapiens, UniProt Q9BQF6).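 Also: Luminescence-based dose-response confirmation of ultra-high-throughput screening hits, measuring inhibition of SENP7.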
T1 sequence (Q9BQF6 whole entry): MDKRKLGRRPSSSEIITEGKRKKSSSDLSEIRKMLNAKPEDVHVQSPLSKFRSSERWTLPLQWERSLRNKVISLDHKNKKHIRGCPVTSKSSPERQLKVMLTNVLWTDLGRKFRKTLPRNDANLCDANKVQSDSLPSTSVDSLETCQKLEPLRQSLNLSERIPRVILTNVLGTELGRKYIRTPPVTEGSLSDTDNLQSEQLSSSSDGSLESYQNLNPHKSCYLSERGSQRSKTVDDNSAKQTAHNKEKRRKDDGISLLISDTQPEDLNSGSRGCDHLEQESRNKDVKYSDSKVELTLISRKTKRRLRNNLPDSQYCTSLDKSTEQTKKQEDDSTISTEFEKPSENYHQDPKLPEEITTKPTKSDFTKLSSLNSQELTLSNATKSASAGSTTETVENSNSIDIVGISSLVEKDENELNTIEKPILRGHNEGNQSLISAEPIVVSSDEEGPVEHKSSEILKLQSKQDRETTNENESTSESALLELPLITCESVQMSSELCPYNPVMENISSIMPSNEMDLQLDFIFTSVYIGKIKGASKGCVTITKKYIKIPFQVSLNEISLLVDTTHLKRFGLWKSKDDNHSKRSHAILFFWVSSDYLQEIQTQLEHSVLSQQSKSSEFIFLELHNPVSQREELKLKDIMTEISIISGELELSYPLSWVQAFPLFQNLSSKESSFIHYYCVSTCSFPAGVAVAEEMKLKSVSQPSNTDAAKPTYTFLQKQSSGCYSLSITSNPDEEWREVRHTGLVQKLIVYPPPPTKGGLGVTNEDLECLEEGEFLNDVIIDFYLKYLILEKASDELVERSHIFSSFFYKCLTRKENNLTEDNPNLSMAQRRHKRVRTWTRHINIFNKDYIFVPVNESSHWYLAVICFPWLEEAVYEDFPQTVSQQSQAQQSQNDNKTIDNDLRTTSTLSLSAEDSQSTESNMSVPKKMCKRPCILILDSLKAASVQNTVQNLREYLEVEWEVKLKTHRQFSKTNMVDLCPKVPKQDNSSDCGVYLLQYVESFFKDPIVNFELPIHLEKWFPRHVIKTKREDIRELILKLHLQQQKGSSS
The class given is functional.

The target of assay [3] is Albumin (Bos taurus, UniProt P02769). The assay can be described thus: Counterscreen for inhibitors of T-cell receptor (TCR)-CD3 interaction: Fluorescence-based biochemical high throughput dose response assay to identify inhibitors of T-cell receptor (TCR)-CD3 interaction using a TAMRA-labeled BSA probe. It is filed as functional.
Assay [4] in a line: fluconazole-exposed Candida albicans growth modulators – fluorescence, retest, confirmation (AID 2467). The class given is functional, cell-based.
The target in assay [5] is T2, SUMO-activating enzyme (Homo sapiens, UniProt Q9UBT2). The assay can be described thus: blockers of UBC9-mediated SUMO conjugation – biochemical, AlphaScreen, SUMOylation inhibitor project, confirmation (AID 2018). The class given is functional. (In general: Bead proximity is the source of the signal in Alpha formats.)
Assay [6] concerns INS1. The assay can be described thus: INS-1E survival protection against cytokine death – cell-based, luminescence, retest, dose response (AID 449756).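 Also: cell death triggered by IL-1 beta plus TNF-alpha plus IFN-gamma mixture; protective hits raise ATP signal compared with cytokine alone wells.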 The class given is functional. As to conditions: Rattus norvegicus.
Assay [7] deals with T3, Sentrin-specific protease 8 (Homo sapiens, UniProt Q96LD8).
T3 sequence (Q96LD8 whole entry): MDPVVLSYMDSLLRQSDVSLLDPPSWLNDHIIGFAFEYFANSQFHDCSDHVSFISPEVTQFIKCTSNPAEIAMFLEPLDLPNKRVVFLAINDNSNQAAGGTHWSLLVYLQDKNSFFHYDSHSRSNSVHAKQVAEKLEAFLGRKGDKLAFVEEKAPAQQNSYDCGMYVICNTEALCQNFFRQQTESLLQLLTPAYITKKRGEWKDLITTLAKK
The class given is functional.

The target of assay [8] is T4, Caspase-3 (Homo sapiens, UniProt P42574).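 Also: Dose-response selectivity test against caspase-3 for candidate inhibitors of sentrin-specific proteases (SENPs).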
T4 sequence (P42574 whole entry): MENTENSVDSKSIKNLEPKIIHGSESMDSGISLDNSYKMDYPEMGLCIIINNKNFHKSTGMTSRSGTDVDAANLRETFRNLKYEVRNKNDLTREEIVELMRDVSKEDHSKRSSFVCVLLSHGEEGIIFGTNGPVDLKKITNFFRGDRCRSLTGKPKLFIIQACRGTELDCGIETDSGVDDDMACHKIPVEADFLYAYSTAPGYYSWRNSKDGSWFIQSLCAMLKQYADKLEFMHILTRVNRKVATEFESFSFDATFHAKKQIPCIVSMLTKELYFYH
The class given is functional.

Assay [9] addresses T5, Sentrin-specific protease 6 (Homo sapiens, UniProt Q9GZR1).
T5 sequence (Q9GZR1 whole entry): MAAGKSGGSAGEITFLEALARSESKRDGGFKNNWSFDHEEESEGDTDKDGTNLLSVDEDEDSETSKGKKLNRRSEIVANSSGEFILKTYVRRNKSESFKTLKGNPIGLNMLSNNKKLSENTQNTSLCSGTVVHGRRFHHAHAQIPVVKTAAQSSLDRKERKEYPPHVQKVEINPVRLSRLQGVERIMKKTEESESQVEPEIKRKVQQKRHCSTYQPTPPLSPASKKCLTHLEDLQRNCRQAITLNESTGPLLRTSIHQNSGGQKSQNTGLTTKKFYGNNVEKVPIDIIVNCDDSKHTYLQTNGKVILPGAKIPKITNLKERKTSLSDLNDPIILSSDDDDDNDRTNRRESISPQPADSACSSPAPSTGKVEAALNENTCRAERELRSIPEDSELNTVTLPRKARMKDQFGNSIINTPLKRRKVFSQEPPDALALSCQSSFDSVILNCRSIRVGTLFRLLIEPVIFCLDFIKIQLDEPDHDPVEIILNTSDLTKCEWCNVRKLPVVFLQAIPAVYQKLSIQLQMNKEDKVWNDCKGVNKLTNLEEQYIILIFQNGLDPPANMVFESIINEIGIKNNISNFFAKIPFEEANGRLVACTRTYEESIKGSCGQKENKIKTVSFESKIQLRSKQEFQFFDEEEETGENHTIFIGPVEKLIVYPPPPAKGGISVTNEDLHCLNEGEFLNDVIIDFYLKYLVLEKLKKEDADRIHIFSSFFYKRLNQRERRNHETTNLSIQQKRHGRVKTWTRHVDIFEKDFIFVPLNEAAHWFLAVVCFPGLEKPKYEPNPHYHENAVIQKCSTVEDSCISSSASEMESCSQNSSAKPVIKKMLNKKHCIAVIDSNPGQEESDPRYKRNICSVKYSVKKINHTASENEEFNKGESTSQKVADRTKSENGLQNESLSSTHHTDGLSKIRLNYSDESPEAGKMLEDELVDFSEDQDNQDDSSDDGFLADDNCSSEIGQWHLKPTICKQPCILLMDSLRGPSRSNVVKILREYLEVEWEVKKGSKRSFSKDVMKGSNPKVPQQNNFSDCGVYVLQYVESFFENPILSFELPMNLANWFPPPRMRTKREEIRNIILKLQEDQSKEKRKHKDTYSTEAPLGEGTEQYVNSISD
It is filed as functional.

The target of assay [10] is T6, Long-chain-fatty-acid--AMP ligase FadD28 (Mycobacterium tuberculosis, UniProt P9WQ59).
T6 sequence (P9WQ59 whole entry): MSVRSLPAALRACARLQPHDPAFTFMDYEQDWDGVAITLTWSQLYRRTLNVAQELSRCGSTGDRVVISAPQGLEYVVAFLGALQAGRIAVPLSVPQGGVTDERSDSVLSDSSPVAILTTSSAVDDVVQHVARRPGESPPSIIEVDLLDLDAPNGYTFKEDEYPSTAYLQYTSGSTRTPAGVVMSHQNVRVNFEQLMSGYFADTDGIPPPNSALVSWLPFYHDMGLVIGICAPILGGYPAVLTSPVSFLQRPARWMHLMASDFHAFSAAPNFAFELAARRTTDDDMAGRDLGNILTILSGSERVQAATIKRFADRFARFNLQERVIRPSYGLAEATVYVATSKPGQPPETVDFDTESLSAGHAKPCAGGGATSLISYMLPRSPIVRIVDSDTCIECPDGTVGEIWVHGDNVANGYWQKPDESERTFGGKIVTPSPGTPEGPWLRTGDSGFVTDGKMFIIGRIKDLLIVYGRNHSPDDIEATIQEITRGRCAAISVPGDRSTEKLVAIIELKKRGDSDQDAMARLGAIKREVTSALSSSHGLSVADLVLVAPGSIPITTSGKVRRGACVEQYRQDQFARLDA
The assay can be described thus: Fluorescence polarization aasay to screen for inhibitors that compete for the binding of FadD28 to a bisubstrate Measured in Biochemical System Using Plate Reader - 2147-01_Inhibitor_Dose_CherryPick_Activity. It is filed as functional, Mycobacterium tuberculosis H37Rv. A general note: Polarisation of emitted light reports the rotation of a fluorescent probe.

Assay [11] deals with T2, SUMO-activating enzyme. The assay can be described thus: blockers of SAE1/SAE2–UBC9 SUMO transfer – biochemical, HTRF, uHTS, primary screen (AID 2006). The class given is protein-complex assay.

Activity calls are given as the source filed them. Rule as the data show it, for most assays here: actives have a measured IC50 and inactives only a lower limit.

T2 sequence (Q9UBE0 whole entry): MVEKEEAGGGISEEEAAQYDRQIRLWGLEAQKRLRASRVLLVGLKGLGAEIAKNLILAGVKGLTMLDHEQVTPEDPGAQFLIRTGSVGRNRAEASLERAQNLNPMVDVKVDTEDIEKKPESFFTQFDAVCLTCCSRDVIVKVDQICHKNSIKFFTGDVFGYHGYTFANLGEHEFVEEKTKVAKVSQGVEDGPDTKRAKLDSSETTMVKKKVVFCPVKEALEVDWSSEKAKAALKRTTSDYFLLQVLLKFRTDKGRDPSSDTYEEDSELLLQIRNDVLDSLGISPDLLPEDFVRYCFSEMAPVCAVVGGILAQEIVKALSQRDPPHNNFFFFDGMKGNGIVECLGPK
T2 sequence (Q9UBT2 whole entry): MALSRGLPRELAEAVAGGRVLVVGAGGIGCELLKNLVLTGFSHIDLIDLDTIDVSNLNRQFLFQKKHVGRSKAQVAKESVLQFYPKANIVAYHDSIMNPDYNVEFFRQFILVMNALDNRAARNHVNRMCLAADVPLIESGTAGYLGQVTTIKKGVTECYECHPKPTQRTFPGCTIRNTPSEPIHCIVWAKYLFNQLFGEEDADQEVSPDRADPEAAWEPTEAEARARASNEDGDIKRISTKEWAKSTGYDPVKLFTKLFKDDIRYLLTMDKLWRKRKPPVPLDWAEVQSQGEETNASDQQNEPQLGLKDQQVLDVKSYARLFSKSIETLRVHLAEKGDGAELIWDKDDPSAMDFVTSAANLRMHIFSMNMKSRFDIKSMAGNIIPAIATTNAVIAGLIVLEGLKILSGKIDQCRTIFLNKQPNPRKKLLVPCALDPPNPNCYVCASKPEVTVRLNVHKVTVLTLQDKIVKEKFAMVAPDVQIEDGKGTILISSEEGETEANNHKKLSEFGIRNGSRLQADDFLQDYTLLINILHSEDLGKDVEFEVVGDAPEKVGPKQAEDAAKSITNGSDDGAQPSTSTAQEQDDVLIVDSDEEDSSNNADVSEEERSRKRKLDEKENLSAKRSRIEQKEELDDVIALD
Chain of Albumin (P02769 whole entry): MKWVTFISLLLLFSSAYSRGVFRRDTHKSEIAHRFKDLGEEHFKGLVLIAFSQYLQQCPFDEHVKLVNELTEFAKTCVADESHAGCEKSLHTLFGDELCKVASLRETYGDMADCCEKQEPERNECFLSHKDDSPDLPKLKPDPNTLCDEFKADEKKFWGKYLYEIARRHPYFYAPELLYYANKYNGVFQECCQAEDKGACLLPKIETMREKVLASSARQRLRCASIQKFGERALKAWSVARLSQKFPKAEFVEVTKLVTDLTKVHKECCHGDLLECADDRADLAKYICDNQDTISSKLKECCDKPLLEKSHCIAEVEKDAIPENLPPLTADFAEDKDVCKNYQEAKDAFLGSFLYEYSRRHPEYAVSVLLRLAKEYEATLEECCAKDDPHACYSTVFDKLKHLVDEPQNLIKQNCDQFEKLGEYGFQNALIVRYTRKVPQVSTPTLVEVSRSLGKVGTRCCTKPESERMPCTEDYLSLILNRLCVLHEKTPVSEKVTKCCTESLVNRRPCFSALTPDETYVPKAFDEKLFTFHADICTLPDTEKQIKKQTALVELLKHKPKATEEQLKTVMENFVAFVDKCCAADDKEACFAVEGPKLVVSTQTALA

On to `O=[N+]([O-])c1ccc(O)c(/C=N/NC(=S)Nc2ccc(Cl)cc2Cl)c1`, for which the EC50 (in general, the concentration that produces a half-maximal response) in [1] was > 160 µM (inactive); in assay [4], 3.32 µM (active). The IC50 (as a rule, the concentration needed to halve the response being measured) in [2] is 3.08 µM (active); in assay [3] it was > 94.1 µM (inactive); in assay [5], 1.41 µM (active); in assay [7], 7.38 µM (active); in [8] it was 28.3 µM (active); in assay [9], 3.15 µM (active). In assay [11], the IC50 was 23.1 µM (active). The values for the concentration at half-maximal activity (AC50) in assay [6] and in [10] were 1.72 µM (active) and > 100 µM (inactive), respectively.
